Source: PMC10850501 (Nature Communications, 2024)
Where two headings read alike, the source gives them in different places. Peptide text beside a SMILES is read from it.

Experiments:
[1] = tested on: SARS-CoV-2 live virus (B.1 lineage), Vero E6 cells; assay type: cell-based
[2] = Cytocompatibility (CCK8); assay type: cell-based, human; conditions: human, A549 cells, read-out: cytocompatibility, normalized to serum free media; for viability at 6 h, 10 µM: 0.01 mM peptide; for viability at 6 h, 100 µM: 0.1 mM peptide; for viability at 6 h, 1000 µM: 1 mM peptide
Method: Cytocompatibility of the peptides was evaluated at 1, 0.1, and 0.01 mM with A549 cells (ATCC CCL-185) cultured in complete media consisting of 90% F-12K and 10% FBS. The A549 cells were utilized after their first passage and seeded at 10,000 cells/well in a 96-well plate for 24 hours. The conditions were prepared in serum-free A549 media and introduced into the wells for 6 hours, after which the condition media were aspirated, the wells were washed once with PBS, and 10 µL of CCK8 was added to 100 µL of PBS[32]. The plate was incubated for 1 hour and read on a Tecan M200 Infinite plate reader at an absorbance of 450 nm with a reference wavelength of 650 nm. The results were analyzed and normalized to the serum-free media control[28],[32],[76].

[3] = Ultracentrifugation pellet / solid-state NMR of assemblies; assay type: physicochemical; conditions: 10 mg/mL, 150,000 RCF, 30 minutes, 4 °C
Method: To experimentally validate E1:ESBP3 peptide mixtures, solid-state NMR experiments were pursued. ^13C solid-state NMR measurements were conducted using cross-polarization magic angle spinning (^1H-^13C CPMAS) to evaluate sample structural order and structural differences between samples. The peptides were not isotopically enriched, so the ^13C signal was from the 1% natural abundance for ^13C.
After peptide dissolution at 10 mg/mL, the samples were concentrated by ultracentrifugation for 30 minutes in Bruker 3.22 mm NMR rotors at 4 °C and 150,000 RCF in Ultra-clear tubes of SW-41 Ti swinging bucket rotor fitted onto a Beckman Optima XPN-100 centrifuge. A 11.75 T magnet Bruker Avance III HD 500 spectrometer (500 MHz, ^1H NMR Larmor frequency) equipped with a room temperature 3.2 mm Bruker Low-E ^1H/^13C/^15N NMR probe was used for measurements. ^13C chemical shift referencing was conducted using adamantane referenced to tetramethylsilane. 1D ^13C cross-polarization magic angle spinning (CPMAS) spectra were collected using the standard Bruker cp pulse sequence. A 10 kHz magic angle spinning speed was used for all samples. The channels frequency for the optimization of the Hartmann-Hahn condition for ^1H and ^13C are 500.133 MHz and 125.771 MHz, respectively. A recycle delay time of 4 seconds (d1) and dwell time of 5 μs (DW) were used. Acquisition time was set to 10.24 ms. […]

[4] = target: the molecule itself; assay: co-sedimentation + other: solid-state NMR (1H-13C CPMAS)

Molecule	Comparative, Average [1]	live virus plaque inhibition, in words [1]	viability at 6 h, 10 µM ([2]; replicate 1, CCK8, 6 h) [%]	viability at 6 h, 10 µM ([2]; replicate 2, CCK8, 6 h) [%]	viability at 6 h, 100 µM ([2]; replicate 1, CCK8, 6 h) [%]	viability at 6 h, 100 µM ([2]; replicate 2, CCK8, 6 h) [%]	viability at 6 h, 100 µM ([2]; replicate 3, CCK8, 6 h) [%]	viability at 6 h, 1000 µM ([2]; replicate 1, CCK8, 6 h exposure, absorbance 450 nm) [%]	viability at 6 h, 1000 µM ([2]; replicate 2, CCK8, 6 h) [%]	viability at 6 h, 1000 µM ([2]; replicate 3, CCK8, 6 h) [%]	ultracentrifuge pellet (assembly into nanofibers) [3]	binding result [4]
CC(=O)N[C@@H](CCC(=O)O)C(=O)N[C@@H](CO)C(=O)N[C@@H](CC(C)C)C(=O)N[C@@H](CO)C(=O)N[C@@H](CC(C)C)C(=O)N[C@@H](CO)C(=O)N[C@@H](CC(C)C)C(=O)N[C@@H](CO)C(=O)N[C@@H](CC(C)C)C(=O)N[C@@H](CO)C(=O)N[C@@H](CC(C)C)C(=O)N[C@@H](CO)C(=O)N[C@@H](CC(C)C)C(=O)N[C@@H](CCC(=O)O)C(N)=O [E1] (Ac-ESLSLSLSLSLSLE-NH2)	65.5306	no major differences	117	122	111	147	117	169	195	139	centrifuge pellets	
Ac-ESLSLSLSLSLSLE-NH2 (also called E-(SL)6-E; E-flanked SAP) [E1 self-assembling peptide (E-SLSLSLSLSLSL-E)]												binds
